# Measured values: patent US12162867B2, “Inhibitors of RNA helicase DHX9 and uses thereof” (ACCENT THERAPEUTICS, INC., priority 2022, dated 2024)
# Like-named read-outs stand apart in the source and are kept apart here.
# Columns and labels:
# Format in all cases: cell-based
# LS411N cells = test: DHX9 cellular proliferation assay (CellTiter-Glo), LS411N (CRC-MSI); settings: Homo sapiens, LS-411N, read-out: LS411N (CRC-MSI-H) Antiproliferative IC50
# [1] = tested on: circBRIP1 in HCT116 cells; test: DHX9 circBRIP1 cellular target engagement TaqMan Multiplex assay (qPCR); settings: Homo sapiens
# NCI-H747 cells = test: DHX9 cellular proliferation assay (CellTiter-Glo), NCI-H747 (CRC-MSS); settings: Homo sapiens
# [2] = HCT-116, circBRIP1, HCT116 cells, * Taqman assay was used, read-out: DHX9 Cellular Target Engagement EC50
# [3] = NCI-H747, NCI-H747, performed at Pharmaron, read-out: H747 (CRC-MSS) Antiproliferative IC50
structure (smiles),measurement,setting,value
Cc1sc(C(=O)Nc2cc(Cl)cc(NS(C)(=O)=O)c2)cc1-c1ncc(N2CCC3(COC3)C2)cc1F [Example 512],IC50,"LS411N cells; LS411N, performed at Pharmaron",107 nM
same,EC50,[1]; [2],0.0176 µM
same,IC50,NCI-H747 cells; [3],6720 nM
Cc1sc(C(=O)Nc2cc(Cl)cc(NS(C)(=O)=O)c2)cc1-c1ncc(N2CC(F)(F)C2)cc1OC1CCC1 [Example 514],IC50,"LS411N cells; LS411N, performed at Pharmaron",149 nM
same,EC50,[1]; [2],0.0455 µM
same,IC50,NCI-H747 cells; [3],> 10000 nM
"COC1CCN(c2ccc(-c3cc(C(=O)Nc4cc(Cl)cc(NS(C)(=O)=O)c4)cn3C)nc2)CC1 [Example 515, N-(3-chloro-5-methanesulfonamidophenyl)-5-[5-(4-methoxypiperidin-1-yl)pyridin-2-yl]-1-methyl-1H-pyrrole-3-carboxamide]",IC50,"LS411N cells; LS411N, performed at Pharmaron",89.3 nM
same,EC50,[1]; [2],0.0216 µM
same,IC50,NCI-H747 cells; [3],8780 nM
Cn1cc(C(=O)Nc2cc(Cl)cc(NS(C)(=O)=O)c2)cc1-c1ncc(N2CCC3(CC2)CC3(F)F)cc1F [Example 518],IC50,"LS411N cells; LS411N, performed at Pharmaron",203 nM
same,EC50,[1]; [2],0.0573 µM
same,IC50,NCI-H747 cells; [3],> 10000 nM
Cc1cc(C(=O)Nc2cc(Cl)cc(NS(C)(=O)=O)c2)cn1-c1ccc(N2CCC3(CC3)C2)cn1 [Example 522],IC50,"LS411N cells; LS411N, performed at Pharmaron",211 nM
same,EC50,[1]; [2],0.109 µM
same,IC50,NCI-H747 cells; [3],> 10000 nM
Cc1cc(C(=O)Nc2cc(Cl)cc(NS(C)(=O)=O)c2)cn1-c1ccc(N2C3CCC2CC3)cn1 [Example 523],IC50,"LS411N cells; LS411N, performed at Pharmaron",174 nM
same,EC50,[1]; [2],0.0572 µM
same,IC50,NCI-H747 cells; [3],5950 nM
"Cn1cc(C(=O)Nc2cc(Cl)cc(NS(C)(=O)=O)c2)cc1-c1ncc(N2CC(C(F)(F)F)C2)cc1F [Example 524, N-(3-chloro-5-methanesulfonamidophenyl)-5-{3-fluoro-5-[3-(trifluoromethyl)azetidin-1-yl]pyridin-2-yl}-1-methyl-1H-pyrrole-3-carboxamide]",IC50,"LS411N cells; LS411N, performed at Pharmaron",138 nM
same,EC50,[1]; [2],0.0766 µM
same,IC50,NCI-H747 cells; [3],6290 nM
Cn1cc(C(=O)Nc2cc(Cl)cc(NS(C)(=O)=O)c2)cc1-c1ncc(N2CCC(F)(F)C2)cc1F [Example 525],IC50,"LS411N cells; LS411N, performed at Pharmaron",144 nM
same,EC50,[1]; [2],0.043 µM
same,IC50,NCI-H747 cells; [3],1350 nM
Cn1cc(C(=O)Nc2cc(Cl)cc(NS(C)(=O)=O)c2)cc1-c1ncc(N2CCC(F)(F)C2)cn1 [Example 526],IC50,"LS411N cells; LS411N, performed at Pharmaron",133 nM
same,EC50,[1]; [2],0.0293 µM
same,IC50,NCI-H747 cells; [3],> 10000 nM
Cn1cc(C(=O)Nc2cc(Cl)cc(NS(C)(=O)=O)c2)cc1-c1ccc(N2CCC(F)(F)C2)cn1 [Example 527],IC50,"LS411N cells; LS411N, performed at Pharmaron",65.4 nM
same,EC50,[1]; [2],0.109 µM
same,IC50,NCI-H747 cells; [3],5580 nM
COc1cc(N2CC(F)(F)C2)cnc1-c1cc(C(=O)Nc2cc(Cl)cc(NS(=O)(=O)CCO)c2)sc1C [Example 528],IC50,"LS411N cells; LS411N, performed at Pharmaron",1130 nM
same,EC50,[1]; [2],0.0723 µM
same,IC50,NCI-H747 cells; [3],6960 nM
"Cc1sc(C(=O)Nc2cc(Cl)cc(NS(C)(=O)=O)c2)cc1-c1ncc(N2CC(F)(F)C2)cc1F [Example 532, N-(3-chloro-5-methanesulfonamidophenyl)-4-[5-(3,3-difluoroazetidin-1-yl)-3-fluoropyridin-2-yl]-5-methylthiophene-2-carboxamide]",IC50,"LS411N cells; LS411N, performed at Pharmaron",100 nM
same,EC50,[1]; [2],0.0301 µM
same,IC50,NCI-H747 cells; [3],4200 nM
Cc1sc(C(=O)Nc2cc(Cl)cc(NS(C)(=O)=O)c2)cc1-c1ccc(N2CC(F)(F)C2)cn1 [Example 533],IC50,"LS411N cells; LS411N, performed at Pharmaron",73.9 nM
same,EC50,[1]; [2],0.0145 µM
same,IC50,NCI-H747 cells; [3],4810 nM
Cc1sc(C(=O)Nc2cc(Cl)cc(NS(C)(=O)=O)c2)cc1-c1ncc(N2CC(F)(F)C2)cc1OC(C)C [Example 534],IC50,"LS411N cells; LS411N, performed at Pharmaron",55.4 nM
same,EC50,[1]; [2],0.0876 µM
same,IC50,NCI-H747 cells; [3],> 10000 nM
COc1cc(N2CC(F)(F)C2)cnc1-c1cc(C(=O)Nc2cc(Cl)cc(NS(C)(=O)=O)c2)sc1C [Example 535],IC50,"LS411N cells; LS411N, performed at Pharmaron",93.3 nM
same,EC50,[1]; [2],0.0047 µM
same,IC50,NCI-H747 cells; [3],> 10000 nM
Cc1sc(C(=O)Nc2cc(Cl)cc(NS(C)(=O)=O)c2)cc1-c1ncc(N2CC(F)(F)C2)cc1OC(F)F [Example 536],IC50,"LS411N cells; LS411N, performed at Pharmaron",70.4 nM
same,EC50,[1]; [2],0.049 µM
same,IC50,NCI-H747 cells; [3],6800 nM
Cc1cc(N2CC(F)(F)C2)cnc1-c1cc(C(=O)Nc2cc(Cl)cc(NS(C)(=O)=O)c2)sc1C [Example 537],IC50,"LS411N cells; LS411N, performed at Pharmaron",82.8 nM
same,EC50,[1]; [2],0.03 µM
same,IC50,NCI-H747 cells; [3],6530 nM
"Cn1cc(C(=O)Nc2cc(Cl)cc(NS(C)(=O)=O)c2)cc1-c1ncc(F)cc1F [Example 540, N-(3-chloro-5-methanesulfonamidophenyl)-5-(3,5-difluoropyridin-2-yl)-1-methyl-1H-pyrrole-3-carboxamide]",IC50,"LS411N cells; LS411N, performed at Pharmaron",175 nM
same,EC50,"[1]; HCT-116, circBRIP1, HCT116 cells, cell carries no mark, SyBr or Taqman not indicated, read-out: DHX9 Cellular Target Engagement EC50",0.0741 µM
same,IC50,NCI-H747 cells; [3],7910 nM
"Cc1sc(C(=O)Nc2cc(Cl)cc(NS(C)(=O)=O)c2)cc1-c1ncc(OC(C)C)cn1 [Example 541, N-(3-chloro-5-(methylsulfonamido)phenyl)-4-(5-isopropoxypyrimidin-2-yl)-5-methylthiophene-2-carboxamide]",IC50,LS411N cells,49.8 nM
same,EC50,"[1]; HCT-116, read-out: DHX9 Cellular Target Engagement EC50 (μM)",0.0377 µM
same,IC50,"NCI-H747 cells; NCI-H747, read-out: H747 (CRC-MSS) Antiproliferative IC50",6000 nM
Cn1cc(C(=O)Nc2cc(Cl)cc(NS(C)(=O)=O)c2)cc1-c1ncc(F)cc1C#N [Example 546],IC50,"LS411N cells; LS411N, performed at Pharmaron",1090 nM
same,EC50,[1]; [2],0.109 µM
same,IC50,NCI-H747 cells; [3],> 10000 nM
Cn1cc(C(=O)Nc2cc(Cl)cc(NS(C)(=O)=O)c2)cc1-c1c(F)cc(F)cc1F [Example 547],IC50,"LS411N cells; LS411N, performed at Pharmaron",173 nM
same,EC50,[1]; [2],0.127 µM
same,IC50,NCI-H747 cells; [3],5430 nM
CCS(=O)(=O)Nc1cc(Cl)cc(NC(=O)c2cc(-c3ncc(C)cc3F)n(C)c2)c1 [Example 548],IC50,"LS411N cells; LS411N, performed at Pharmaron",226 nM
same,EC50,[1]; [2],0.0804 µM
same,IC50,NCI-H747 cells; [3],6460 nM
COc1cnc(-c2cc(C(=O)Nc3cc(Cl)cc(NS(C)(=O)=O)c3)cn2C)nc1 [Example 549],IC50,"LS411N cells; LS411N, performed at Pharmaron",369 nM
same,EC50,[1]; [2],0.0483 µM
same,IC50,NCI-H747 cells; [3],> 10000 nM
COc1cc(C(F)(F)F)cnc1-c1cc(C(=O)Nc2cc(Cl)cc(NS(C)(=O)=O)c2)sc1C [Example 550],IC50,"LS411N cells; LS411N, performed at Pharmaron",352 nM
same,EC50,[1]; [2],0.105 µM
same,IC50,NCI-H747 cells; [3],3640 nM
Cn1cc(C(=O)Nc2cc(Cl)cc(NS(C)(=O)=O)c2)cc1-c1cccc(N2CC(F)(F)C2)n1 [Example 551],IC50,"LS411N cells; LS411N, performed at Pharmaron",225 nM
same,EC50,[1]; [2],0.127 µM
same,IC50,NCI-H747 cells; [3],3500 nM
Cn1cc(C(=O)Nc2cc(Cl)cc(NS(C)(=O)=O)c2)cc1-c1ncc(OC(F)F)cn1 [Example 553],IC50,"LS411N cells; LS411N, performed at Pharmaron",211 nM
same,EC50,[1]; [2],0.0716 µM
same,IC50,NCI-H747 cells; [3],> 10000 nM
Cn1cc(C(=O)Nc2cc(Cl)cc(NS(C)(=O)=O)c2)cc1-c1ccc(OC(C)(C)C)cn1 [Example 555],IC50,"LS411N cells; LS411N, performed at Pharmaron",121 nM
same,EC50,[1]; [2],0.0466 µM
same,IC50,NCI-H747 cells; [3],4470 nM
Cn1cc(C(=O)Nc2cc(Cl)cc(NS(C)(=O)=O)c2)cc1-c1ncc(OC(C)(C)C)cn1 [Example 556],IC50,"LS411N cells; LS411N, performed at Pharmaron",74.9 nM
same,EC50,[1]; [2],0.0545 µM
same,IC50,NCI-H747 cells; [3],4520 nM
Cn1cc(C(=O)Nc2cc(Cl)cc(NS(C)(=O)=O)c2)cc1-c1ncc(OC(C)(C)C)cc1F [Example 557],IC50,"LS411N cells; LS411N, performed at Pharmaron",131 nM
same,EC50,[1]; [2],0.0926 µM
same,IC50,NCI-H747 cells; [3],2300 nM
Cc1sc(C(=O)Nc2cc(Cl)cc(NS(C)(=O)=O)c2)cc1-c1ncc(OC(C)(C)C)cn1 [Example 559],IC50,"LS411N cells; LS411N, performed at Pharmaron",74 nM
same,EC50,[1]; [2],0.0425 µM
same,IC50,NCI-H747 cells; [3],3370 nM
CS(=O)(=O)Nc1cc(Cl)cc(NC(=O)c2c[nH]c(-c3ncc(F)cc3F)c2)c1 [Example 560],IC50,"LS411N cells; LS411N, performed at Pharmaron",145 nM
same,EC50,[1]; [2],0.148 µM
same,IC50,NCI-H747 cells; [3],> 10000 nM
CCS(=O)(=O)Nc1cc(Cl)cc(NC(=O)c2cc(-c3ncc(OC(C)C)cn3)c(C)s2)c1 [Example 565],IC50,"LS411N cells; LS411N, performed at Pharmaron",58.2 nM
same,EC50,[1]; [2],0.0565 µM
same,IC50,NCI-H747 cells; [3],3010 nM
CCS(=O)(=O)Nc1cc(Cl)cc(NC(=O)c2cc(-c3ccc(F)cn3)n(C)c2)c1 [Example 579],IC50,"LS411N cells; LS411N, performed at Pharmaron",329 nM
same,EC50,[1]; [2],0.103 µM
same,IC50,NCI-H747 cells; [3],> 10000 nM
Cc1sc(C(=O)Nc2cc(Cl)cc(NS(C)(=O)=O)c2)cc1-c1ncc(C#N)cn1 [Example 585],IC50,"LS411N cells; LS411N, performed at Pharmaron",208 nM
same,EC50,[1]; [2],0.0651 µM
same,IC50,NCI-H747 cells; [3],> 10000 nM
